The source of these data is ChEMBL document CHEMBL4364310, “Design, synthesis and biological evaluation of novel α-aminophosphonate oxadiazoles via optimized iron triflate catalyzed reaction as apoptotic inducers” (Eur J Med Chem, 2019).

As usually defined, the IC50 is the concentration that gives 50% inhibition.

The structures appear in SMILES notation.

The subject of one data set is FHC. The experiment in a line: Cytotoxicity against human FHC cells assessed as reduction in cell viability incubated for 48 hrs by MTT assay. The class given is cell-based. (In general: Formazan colour is commonly taken as a measure of viable cells.)
The subject of a further data set is HepG2. The data set can be described thus: Antiproliferative activity against human HepG2 cells assessed as reduction in cell viability incubated for 48 hrs by MTT assay. The class given is functional, cell-based. Conditions: HepG2, 48 h.
For data set [1], the system named is HCT-116. The data set can be described thus: Antiproliferative activity against human HCT116 cells assessed as reduction in cell viability incubated for 48 hrs by MTT assay. The class given is functional, cell-based. The settings on record: HCT-116, 48 h.
The test system of a further data set is MCF7. The data set can be described thus: Antiproliferative activity against human MCF7 cells assessed as reduction in cell viability incubated for 48 hrs by MTT assay. The class given is functional, cell-based. Conditions: MCF7, 48 h.
Data set [2] can be described thus: Selectivity index, ratio of IC50 for human FHC cells to IC50 for human HCT116 cells. The class given is toxicity. The settings on record: FHC cells and HCT116 cells, read-out: Ratio IC50.
In data set [3] the test system is HCT-116. The data set can be described thus: Induction of apoptosis in human HCT116 cells assessed as increase in caspase 3 level by ELISA relative to control. The class given is functional.
The test system of data set [4] is HCT-116. The data set can be described thus: Induction of apoptosis in human HCT116 cells assessed as increase in caspase 8 level by ELISA relative to control. The class given is functional. A general note: An ELISA detects its analyte on a solid surface through an enzyme-linked reagent.
Data set [5] deals with HCT-116. The experiment in a line: Induction of apoptosis in human HCT116 cells assessed as increase in caspase 9 level by ELISA relative to control. The class given is functional.
Data set [6] has as its system HCT-116. The data set can be described thus: Induction of apoptosis in human HCT116 cells assessed as increase in cytochrome C by ELISA relative to control. The class given is functional.
Data set [7] concerns HCT-116. The data set can be described thus: Induction of apoptosis in human HCT116 cells assessed as increase in Bax level by ELISA relative to control. The class given is functional.
For data set [8], the system named is HCT-116. The experiment in a line: Induction of apoptosis in human HCT116 cells assessed as decrease in Bcl 2 level by ELISA relative to control (reference value: 10.1 +/- 0.73 ng/ml). The class given is functional.
In data set [9] the test system is HCT-116. The data set can be described thus: Induction of apoptosis in human HCT116 cells assessed as early apoptotic cells incubated for 24 hrs by annexin V FITC and propidium iodide staining based flow cytometry (reference value: 0.9 %). The class given is functional. For orientation: Flow cytometry measures light scatter and fluorescence of single cells or particles in a stream.

The test system of data set [10] is HCT-116. The data set can be described thus: Induction of apoptosis in human HCT116 cells assessed as late apoptotic cells incubated for 24 hrs by annexin V FITC and propidium iodide staining based flow cytometry (reference value: 0.39 %). The class given is functional.
Data set [11] has as its system HCT-116. The experiment in a line: Induction of apoptosis in human HCT116 cells assessed as necrotic cells incubated for 24 hrs by annexin V FITC and propidium iodide staining based flow cytometry (reference value: 0.46 %). The class given is functional.
The subject of data set [12] is HCT-116. The experiment in a line: Induction of cell cycle arrest in human HCT116 cells assessed as accumulation in preG phase incubated for 24 hrs by annexin V FITC and propidium iodide staining based flow cytometry (reference value: 1.75 %). The class given is functional.
The subject of data set [13] is HCT-116. The data set can be described thus: Induction of cell cycle arrest in human HCT116 cells assessed as accumulation in G0/G1 phase incubated for 24 hrs by annexin V FITC and propidium iodide staining based flow cytometry (reference value: 46.72 %). The class given is functional.
Data set [14] relates to HCT-116. The data set can be described thus: Induction of cell cycle arrest in human HCT116 cells assessed as accumulation in G2/M phase incubated for 24 hrs by annexin V FITC and propidium iodide staining based flow cytometry (reference value: 18.29 %). The class given is functional.
Data set [15] concerns HCT-116. The data set can be described thus: Induction of cell cycle arrest in human HCT116 cells assessed as accumulation in S phase incubated for 24 hrs by annexin V FITC and propidium iodide staining based flow cytometry (reference value: 34.99 %). The class given is functional.

For the compound `CCOP(=O)(OCC)C(NNC(=O)CSc1nnc(-c2ccncc2)o1)c1ccccc1Cl` (stereo unspecified), the IC50 in the data set on FHC was determined as 35.9 µM; in the data set with HepG2, 19.2 µM; with HCT-116 [1] it was 9.2 µM; in the data set on MCF7, 62.9 µM. For the same compound, the selectivity ratio in data set [2] stood at 3.9. Besides, the “fold change (FC)” value with HCT-116 [3] was 7.78; with HCT-116 [4], 6.4; with HCT-116 [5] it was 11.61; with HCT-116 [6], 6.72; in the data set with HCT-116 [7] it was 6.18. Further, the Activity was found to be 5.088 ng/mL with HCT-116 [8]; 7.26% in the data set with HCT-116 [9]; 15.69% in the data set on HCT-116 [10]; 3.28% with HCT-116 [11]; 26.23% in the data set on HCT-116 [12]; 24.91% with HCT-116 [13]. In addition, the figures for the Activity with HCT-116 [14] and in the data set on HCT-116 [15] were 46.33% and 28.76%, respectively.

On to `CCOP(=O)(OCC)C(NNC(=O)CSc1nnc(-c2ccncc2)o1)c1ccccc1` (stereo unspecified), for which the IC50 in the data set with HepG2 was 23.5 µM; in the data set with HCT-116 [1] it was 22.5 µM; in the data set with MCF7, 99.1 µM.

As to `CCOP(=O)(OCC)C(NNC(=O)CSc1nnc(-c2ccncc2)o1)c1ccc([N+](=O)[O-])cc1` (stereo unspecified), the IC50 amounted to 18.1 µM in the data set with HepG2, 15 µM in the data set with HCT-116 [1] and 58.8 µM with MCF7.

As to `CCOP(=O)(OCC)C(NNC(=O)CSc1nnc(-c2ccncc2)o1)c1ccc(C)cc1` (stereo unspecified), the figures for the IC50 in the data set on HepG2, in the data set on HCT-116 [1] and in the data set with MCF7 were 19.5 µM, 17.6 µM and 86.3 µM, respectively.

With `COc1cccc2c1C(=O)c1c(O)c3c(c(O)c1C2=O)C[C@@](O)(C(=O)CO)C[C@@H]3O[C@H]1C[C@H](N)[C@H](O)[C@H](C)O1` [DOXORUBICIN], the IC50 with HepG2 stood at 10.4 µM; in the data set on HCT-116 [1], 9.4 µM.

For `CCOP(=O)(OCC)C(NNC(=O)CSc1nnc(-c2ccncc2)o1)c1ccc(O)cc1` (stereo unspecified), the half-maximal inhibitory concentration (IC50) with HepG2 is 14.8 µM; with HCT-116 [1], 14.6 µM; with MCF7, 52.9 µM.

For the compound `CCOP(=O)(OCC)C(NNC(=O)CSc1nnc(-c2ccncc2)o1)c1ccc(F)cc1` (stereo unspecified), the half-inhibitory concentration (IC50) amounted to 21.5 µM in the data set with HepG2, 31.3 µM in the data set on HCT-116 [1] and 70.6 µM in the data set on MCF7.

As for `CCOP(=O)(OCC)C(NNC(=O)CSc1nnc(-c2ccncc2)o1)c1cc(OC)ccc1OC` (stereo unspecified), the IC50 in the data set on HepG2 stood at 20.3 µM; in the data set on HCT-116 [1] it was 24.6 µM; with MCF7 it was 61.6 µM.

For the compound `CCOP(=O)(OCC)C(NNC(=O)CSc1nnc(-c2ccncc2)o1)c1ccc(C#N)cc1` (stereo unspecified), the IC50 in the data set with HepG2 was 13.6 µM; in the data set with HCT-116 [1], 12.7 µM; in the data set on MCF7, 41.7 µM.

Regarding `CCOP(=O)(OCC)C(NNC(=O)CSc1nnc(-c2ccncc2)o1)c1ccc(Br)cc1` (stereo unspecified), the results for the IC50 in the data set on HepG2, in the data set on HCT-116 [1] and in the data set on MCF7 were 31 µM, 17.3 µM and 64.4 µM, respectively.

`CCOP(=O)(OCC)C(NNC(=O)CSc1nnc(-c2ccncc2)o1)c1ccc(O)c(O)c1` (stereo unspecified): the half-inhibitory concentration (IC50) was determined as 27.3 µM in the data set with HepG2, 21.1 µM in the data set on HCT-116 [1] and 63.4 µM in the data set on MCF7.

Turning to `CCOP(=O)(OCC)C(NNC(=O)CSc1nnc(-c2ccncc2)o1)c1cccc(OC)c1` (stereo unspecified), the IC50 in the data set with HepG2 is 53.9 µM; in the data set on HCT-116 [1] it was 19.2 µM; with MCF7, 52.3 µM.

`CCOP(=O)(OCC)C(NNC(=O)CSc1nnc(-c2ccncc2)o1)c1ccc2ccccc2c1` (stereo unspecified): the half-inhibitory concentration (IC50) was determined as 23.4 µM with FHC, 25.8 µM in the data set on HepG2, 9.5 µM with HCT-116 [1] and 57.3 µM in the data set with MCF7. The selectivity ratio in data set [2] amounted to 2.46. Also, the “fold change (FC)” value was 5.99 with HCT-116 [3]; 3.64 in the data set with HCT-116 [4]; 8.85 with HCT-116 [5]; 5.69 in the data set with HCT-116 [6]; 5.78 with HCT-116 [7]. Besides, the Activity in the data set on HCT-116 [8] was 5.945 ng/mL; in the data set with HCT-116 [9] it was 4.59%; with HCT-116 [10] it was 12.51%; with HCT-116 [11], 2.14%; in the data set on HCT-116 [12] it was 19.24%; in the data set with HCT-116 [13], 30.56%. In addition, the Activity in the data set with HCT-116 [14] turned out to be 37.97%; with HCT-116 [15], 31.47%.

Consider `CCOP(=O)(OCC)C(NNC(=O)CSc1nnc(-c2ccncc2)o1)c1cccs1` (stereo unspecified), for which the values for the IC50 in the data set with HepG2, in the data set with HCT-116 [1] and in the data set with MCF7 were 13.9 µM, 17.1 µM and 47.8 µM, respectively.
